Measurements reported in patent US10117940B2, “DPI formulation containing sulfoalkyl ether cyclodextrin” (CyDex Pharmaceuticals, Inc., priority 2004, dated 2018).

Legend:
[1] = Electrostatic charge measurement with Faraday cage apparatus; type: physicochemical; conditions: for Electrostatic charge of active agent, Approx. Magnitude: exemplary active agent of the charge range
Protocol: Determination of the electrostatic charge of the SAE-CD-containing carrier and the active agent-containing composition.
Electrostatic charge measurements were performed using a Faraday Cage apparatus that determines the potential difference changes as a function of time during powder flow onto a conducting surface. Samples were weighed and transferred from original containers to wax coated weighing papers. These were mounted to a vibrating spatula (set at maximum vibration level). The angle of the spatula was set at a constant angle (30 degrees). Powder was dispensed to the Faraday cage that was connected to a electrometer. Data collection was performed using Windaq interface and a PC computer sampling at 240 Hz. The area under the electrostatic dissipation curve was determined (Voltage×time) and charge (nC/g) was calculated from the known resistance of the setup.

healthy volunteers = conditions: nasal spray in aqueous sulfobutylether-beta-cyclodextrin buffer solution; cited from earlier work
rats = conditions: inhaled aerosol composition, SBE-CD present alone; cited from earlier work

Row | Molecule | Polarity and magnitude of electrostatic charge (in words) [1] | Electrostatic charge of active agent, Approx. Magnitude [1] [nC/g] | Electrostatic charge ([1]; micronized for inhalation) [nC/g] | Side effects (healthy volunteers) | Toxicity (rats)
1 | CC(C)(C)NCC(O)c1ccc(O)c(CO)c1 (stereo not drawn) [Albuterol, alpha^1-(((1,1-dimethylethyl)amino)methyl)-4-hydroxy-1,3-benzenedimethanol] | high positive charge | >4 |  |  | 
2 | O=C(O)c1cc(=O)c2c(OCC(O)COc3cccc4oc(C(=O)O)cc(=O)c34)cccc2o1 [Na Cromolyn, sodium cromolyn] | electroneutral | −2 to −0.5 | −1 to −1.7 |  | 
3 | Cc1ncc2n1-c1ccc(Cl)cc1C(c1ccccc1F)=NC2 [midazolam] |  |  |  | No serious side effects | 
4 | sulfobutyl ether derivative of beta cyclodextrin [SBE-CD] |  |  |  |  | non-toxic
